Biological target: T1, human URAT1 (Homo sapiens, UniProt Q96S37)
T1 construct: Full-length cDNA of human URAT1 (hURAT1)
T1 sequence (Q96S37 1-553): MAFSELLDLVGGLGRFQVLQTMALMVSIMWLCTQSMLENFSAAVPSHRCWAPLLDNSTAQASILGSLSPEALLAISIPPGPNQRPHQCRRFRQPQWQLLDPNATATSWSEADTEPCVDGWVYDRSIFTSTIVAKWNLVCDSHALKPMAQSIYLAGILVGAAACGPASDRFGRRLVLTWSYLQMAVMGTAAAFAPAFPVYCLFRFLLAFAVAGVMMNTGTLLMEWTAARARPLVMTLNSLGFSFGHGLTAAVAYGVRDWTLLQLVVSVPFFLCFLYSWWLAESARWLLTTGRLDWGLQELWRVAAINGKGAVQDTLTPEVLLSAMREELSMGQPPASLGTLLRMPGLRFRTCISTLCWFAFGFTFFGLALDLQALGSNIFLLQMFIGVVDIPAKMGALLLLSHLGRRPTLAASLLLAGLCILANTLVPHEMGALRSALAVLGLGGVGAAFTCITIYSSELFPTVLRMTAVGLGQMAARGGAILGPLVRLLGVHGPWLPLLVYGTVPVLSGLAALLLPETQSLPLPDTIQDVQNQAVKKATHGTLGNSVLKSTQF
Experiment: Test for inhibition of uric acid transport using human URAT1-expressing cells;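 also: three stars up to 0.2 µM two stars 0.2-2 µM one star 2-20 µM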
Format: cell-based
Settings: HEK 293 cells expressing human URAT1; 14C-labeled uric acid 25 μM; uptake 37° C. for 5 min
How it was run: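 HEK293 cells stably transfected with full-length hURAT1, preincubated 10 min at 37 °C in HBSS with NaCl replaced by Na gluconate. Uptake of 25 μM ¹⁴C-uric acid with compound ran 5 min at 37 °C, then scintillation counting. IC50 derived from % of DMSO-control URAT1-specific uptake.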

SMILES	Inhibitory Activity (IC50 of uric acid transport inhibition)
Cc1nc(-c2cccnc2)n(Cc2csc3cccc(C(F)(F)F)c23)c1C(=O)O [Compound A6, 4-methyl-2-(pyridin-3-yl)-1-((4-(trifluoromethyl)benzo[b]thiophen-3-yl)-methyl)-1H-imidazole-5-carboxylic acid]	* *
Cc1ccc(Cn2c(-c3cccnc3)nc(Cl)c2C(=O)O)c2ccccc12 [Compound A23, 4-chloro-1-((4-methylnaphthalen-1-yl)methyl)-2-(pyridin-3-yl)-1H-imidazole-5-carboxylic acid]	* *
O=C(O)c1c(C2CC2)nc(-c2cncc(F)c2)n1Cc1cccc2ccccc12 [Compound A153, 4-cyclopropyl-2-(5-fluoropyridin-3-yl)-1-(naphthalen-1-ylmethyl)-1H-imidazole-5-carboxylic acid]	* *
O=C(O)c1c(C(F)(F)F)nc(-c2cncc(F)c2)n1Cc1cc(Cl)ccc1Cl [Compound A136, 1-(2,5-dichlorobenzyl)-2-(5-fluoropyridin-3-yl)-4-(trifluoromethyl)-1H-imidazole-5-carboxylic acid]	* * *
Cc1ccc(C)c(Cn2c(-c3cncc(F)c3)nc(C)c2C(=O)O)c1 [Compound A178, 1-(2,5-dimethylbenzyl)-2-(5-fluoropyridin-3-yl)-4-methyl-1H-imidazole-5-carboxylic acid]	* *
CC(C)(O)c1nc(-c2cccnc2)n(Cc2cc(Cl)ccc2Cl)c1C(=O)O [Compound A108, 1-(2,5-dichlorobenzyl)-4-(2-hydroxypropan-2-yl)-2-(pyridin-3-yl)-1H-imidazole-5-carboxylic acid]	* * *
Cc1nc(-c2cccnc2)n(Cc2cc(Cl)sc2Cl)c1C(=O)O [Compound A79, 1-((2,5-dichlorothiophen-3-yl)methyl)-4-methyl-2-(pyridin-3-yl)-1H-imidazole-5-carboxylic acid]	* *
CC(C)c1nc(-c2cncc(Cl)c2)n(Cc2cccc3ccsc23)c1C(=O)O [Compound A235, 1-(benzo[b]thiophen-7-ylmethyl)-2-(5-chloropyridin-3-yl)-4-isopropyl-1H-imidazole-5-carboxylic acid]	* * *
O=C(O)c1c(-c2ccccc2)nc(-c2cccnc2)n1Cc1cc(Cl)ccc1Cl [Compound A91, 1-(2,5-dichlorobenzyl)-4-phenyl-2-(pyridin-3-yl)-1H-imidazole-5-carboxylic acid]	* * *
COc1ccc(-c2nc(C)c(C(=O)O)n2Cc2cc(Cl)ccc2Cl)cn1 [Compound A161, 1-(2,5-dichlorobenzyl)-2-(6-methoxypyridin-3-yl)-4-methyl-1H-imidazole-5-carboxylic acid]	* *
Cc1nc(Oc2cccnc2Cl)n(Cc2cc(Cl)ccc2Cl)c1C(=O)O [Compound A253, 2-((2-chloropyridin-3-yl)oxy)-1-(2,5-dichlorobenzyl)-4-methyl-1H-imidazole-5-carboxylic acid]	* * *
Cc1cncc(-c2ccc(C(=O)O)n2Cc2cccc3ccsc23)c1 [Compound B21, 1-(benzo[b]thiophen-7-ylmethyl)-2-(5-methylpyridin-3-yl)-1H-pyrrole-5-carboxylic acid]	* * *
Cc1nc(-c2cncc(F)c2)n(Cc2sc(Cl)cc2Cl)c1C(=O)O [Compound A228, 1-((2,4-dichlorothiophen-5-yl)methyl)-2-(5-fluoropyridin-3-yl)-4-methyl-1H-imidazole-5-carboxylic acid]	* *
Cc1nc(-c2cncc(F)c2)n(Cc2csc3cccc(Cl)c23)c1C(=O)O [Compound A141, 1-((4-chlorobenzo[b]thiophen-3-yl)methyl)-2-(5-fluoropyridin-3-yl)-4-methyl-1H-imidazole-5-carboxylic acid]	* *
CN(C)Cc1nc(-c2cncc(Cl)c2)n(Cc2cc(Cl)ccc2Cl)c1C(=O)O [Compound A192, 2-(5-chloropyridin-3-yl)-1-(2,5-dichlorobenzyl)-4-((dimethylamino)methyl)-1H-imidazole-5-carboxylic acid]	* *
O=C(O)c1c(Br)nc(-c2cccnc2)n1Cc1cc(Cl)ccc1Cl [Compound A89, 4-bromo-1-(2,5-dichlorobenzyl)-2-(pyridin-3-yl)-1H-imidazole-5-carboxylic acid]	* * *
O=C(O)c1c(Cl)nc(-c2cccnc2)n1Cc1cc(Cl)ccc1Cl [Compound A88, 4-chloro-1-(2,5-dichlorobenzyl)-2-(pyridin-3-yl)-1H-imidazole-5-carboxylic acid]	* * *
O=C(O)c1c(Cl)nc(-c2cncc(Cl)c2)n1Cc1cc(Cl)ccc1Cl [Compound A220, 4-chloro-2-(5-chloropyridine-3-yl)-1-(2,5-dichlorobenzyl)-1H-imidazole-5-carboxylic acid]	* * *
Cc1nc(-c2cncc(O)c2)n(Cc2cc(Cl)ccc2Cl)c1C(=O)O [Compound A172, 1-(2,5-dichlorobenzyl)-2-(5-hydroxypyridin-3-yl)-4-methyl-1H-imidazole-5-carboxylic acid]	* *
O=C(O)c1c(C(F)(F)F)nc(-c2cccnc2)n1Cc1csc2ccccc12 [Compound A22, 1-(benzo[b]thiophen-3-ylmethyl)-2-(pyridin-3-yl)-4-(trifluoromethyl)-1H-imidazole-5-carboxylic acid]	* *
Cc1nc(-c2cncc(Br)c2)n(Cc2cc(Cl)ccc2Cl)c1C(=O)O [Compound A177, 2-(5-bromopyridin-3-yl)-1-(2,5-dichlorobenzyl)-4-methyl-1H-imidazole-5-carboxylic acid]	* * *
N#Cc1nc(-c2cccnc2)n(Cc2cc(Cl)ccc2Cl)c1C(=O)O [Compound A101, 4-cyano-1-(2,5-dichlorobenzyl)-2-(pyridin-3-yl)-1H-imidazole-5-carboxylic acid]	* * *
Cc1nc(-c2cncc(F)c2)n(Cc2cccc3ccsc23)c1C(=O)O [Compound A234, 1-(benzo[b]thiophen-7-ylmethyl)-2-(5-fluoropyridin-3-yl)-4-methyl-1H-imidazole-5-carboxylic acid]	* *
Cc1nc(-c2cccnc2)n(Cc2cccc(Br)c2)c1C(=O)O [Compound A55, 1-(3-bromobenzyl)-4-methyl-2-(pyridin-3-yl)-1H-imidazole-5-carboxylic acid]	* *
Cc1nc(-c2cccnc2)n(Cc2cccc(Cl)c2Cl)c1C(=O)O [Compound A70, 1-(2,3-dichlorobenzyl)-4-methyl-2-(pyridin-3-yl)-1H-imidazole-5-carboxylic acid]	* *
CCSc1nc(-c2cccnc2)n(Cc2cc(Cl)ccc2Cl)c1C(=O)O [Compound A105, 1-(2,5-dichlorobenzyl)-4-(ethylthio)-2-(pyridin-3-yl)-1H-imidazole-5-carboxylic acid]	* * *
Cc1nc(-c2cncc(C(F)F)c2)n(Cc2cc(Cl)ccc2Cl)c1C(=O)O [Compound A208, 1-(2,5-dichlorobenzyl)-2-(5-(difluoromethyl)pyridin-3-yl)-4-methyl-1H-imidazole-5-carboxylic acid]	* * *

Same assay, conditions: HEK 293 cells expressing human URAT1; 14C-labeled uric acid 25 μM; uptake 37° C. for 5 min; read-out: Inhibitory Activity (IC50 of uric acid transport inhibition)

SMILES	IC50
O=C(O)/C=C/c1cnc(-c2cccnc2)n1Cc1cccc2ccccc12 [Compound A259]	2 to 20 µM
Cc1nc(-c2cccnc2)n(Cc2ccccc2C(F)(F)F)c1C(=O)O [Compound A60]	2 to 20 µM
Cc1nc(-c2cccnc2)n(Cc2c(F)cccc2Cl)c1C(=O)O [Compound A72]	2 to 20 µM
CC(C)(Sc1ncc(-c2cccnc2)n1Cc1cc(Cl)ccc1Cl)C(=O)O [Compound A264]	2 to 20 µM
Cc1cccc(Cn2c(-c3cccnc3)nc(C)c2C(=O)O)c1 [Compound A58]	2 to 20 µM
C[S+]([O-])c1nc(-c2cccnc2)n(Cc2cc(Cl)ccc2Cl)c1C(=O)O (stereo not shown) [Compound A106]	2 to 20 µM
Cc1nc(-c2cccnc2)n(Cc2cccc(Cl)c2F)c1C(=O)O [Compound A74]	2 to 20 µM

Source: US9637469B2, “Pyridine derivative” (Teijin Pharma Limited, priority 2012, dated 2017)
